The results in this text go back to patent publication US10385070B2, “Chroman-spirocyclic piperidine amides as modulators of ion channels” (VERTEX PHARMACEUTICALS INCORPORATED, priority 2011, dated 2019).

Broadly, the pIC50 is −log10 of the IC50, conventionally taken in molar units.

SMILES strings stand for the structures. pIC50: −log10 of the molar value.

human NaV subtype, like NaV 1.7, sequence (Q15858 whole entry): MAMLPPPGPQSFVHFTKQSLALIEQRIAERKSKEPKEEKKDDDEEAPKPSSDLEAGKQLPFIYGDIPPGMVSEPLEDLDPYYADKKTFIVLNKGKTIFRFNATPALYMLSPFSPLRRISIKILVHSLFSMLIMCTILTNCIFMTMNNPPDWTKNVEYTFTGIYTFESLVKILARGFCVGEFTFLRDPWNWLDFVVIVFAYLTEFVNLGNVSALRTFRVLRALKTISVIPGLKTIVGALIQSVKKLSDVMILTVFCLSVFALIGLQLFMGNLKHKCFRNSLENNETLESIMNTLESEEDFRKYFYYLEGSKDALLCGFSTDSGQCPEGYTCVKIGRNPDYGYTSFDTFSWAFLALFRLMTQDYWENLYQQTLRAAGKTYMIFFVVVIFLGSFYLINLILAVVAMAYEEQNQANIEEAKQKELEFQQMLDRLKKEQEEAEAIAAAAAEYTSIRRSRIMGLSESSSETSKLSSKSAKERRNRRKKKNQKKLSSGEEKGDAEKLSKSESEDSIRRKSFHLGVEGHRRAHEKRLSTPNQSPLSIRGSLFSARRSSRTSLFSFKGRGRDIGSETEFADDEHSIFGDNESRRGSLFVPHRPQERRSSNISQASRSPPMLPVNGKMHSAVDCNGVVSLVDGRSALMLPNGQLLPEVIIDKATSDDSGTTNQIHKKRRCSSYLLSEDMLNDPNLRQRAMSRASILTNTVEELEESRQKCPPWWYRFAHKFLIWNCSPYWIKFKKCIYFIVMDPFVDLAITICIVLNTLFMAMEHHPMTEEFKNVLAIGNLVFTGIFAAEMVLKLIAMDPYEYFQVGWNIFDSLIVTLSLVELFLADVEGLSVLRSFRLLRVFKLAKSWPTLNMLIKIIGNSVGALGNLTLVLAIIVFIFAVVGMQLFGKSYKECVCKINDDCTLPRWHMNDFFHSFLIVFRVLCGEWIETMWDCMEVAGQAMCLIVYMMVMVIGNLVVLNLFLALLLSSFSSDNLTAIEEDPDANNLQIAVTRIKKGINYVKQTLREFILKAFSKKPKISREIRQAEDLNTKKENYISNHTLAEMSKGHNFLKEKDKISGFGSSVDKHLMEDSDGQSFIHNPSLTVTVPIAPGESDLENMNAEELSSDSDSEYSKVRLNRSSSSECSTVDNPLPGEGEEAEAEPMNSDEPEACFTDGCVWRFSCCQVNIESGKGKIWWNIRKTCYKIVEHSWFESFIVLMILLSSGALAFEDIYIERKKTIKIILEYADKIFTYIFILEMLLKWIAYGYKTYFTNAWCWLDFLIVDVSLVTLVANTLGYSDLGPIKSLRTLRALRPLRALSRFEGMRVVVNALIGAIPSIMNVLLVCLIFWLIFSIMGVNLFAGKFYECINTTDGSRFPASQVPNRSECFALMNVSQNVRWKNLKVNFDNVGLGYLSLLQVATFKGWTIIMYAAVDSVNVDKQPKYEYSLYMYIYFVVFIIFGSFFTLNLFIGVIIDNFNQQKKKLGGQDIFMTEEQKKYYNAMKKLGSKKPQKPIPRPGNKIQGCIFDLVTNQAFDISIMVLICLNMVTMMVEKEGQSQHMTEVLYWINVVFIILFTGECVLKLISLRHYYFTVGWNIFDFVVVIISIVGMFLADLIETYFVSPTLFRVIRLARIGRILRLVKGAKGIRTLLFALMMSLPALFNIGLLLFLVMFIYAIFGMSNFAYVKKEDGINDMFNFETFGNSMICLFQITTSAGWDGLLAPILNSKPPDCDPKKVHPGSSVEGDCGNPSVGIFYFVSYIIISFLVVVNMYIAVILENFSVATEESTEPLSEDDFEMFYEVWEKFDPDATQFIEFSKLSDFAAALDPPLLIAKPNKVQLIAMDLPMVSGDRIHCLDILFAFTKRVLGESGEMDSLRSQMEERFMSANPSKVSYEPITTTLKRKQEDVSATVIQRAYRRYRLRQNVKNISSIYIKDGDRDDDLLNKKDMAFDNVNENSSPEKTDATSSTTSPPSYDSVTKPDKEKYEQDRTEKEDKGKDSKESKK

This test addresses human NaV subtype, like NaV 1.7 (Homo sapiens, UniProt Q15858). The test is described as follows: E-VIPR optical membrane potential assay with electrical stimulation. The format is cell-based. As to conditions: active against one or more sodium channels; assay and NaV subtype not specified for Table 3; read-out: IC50 Binned Activity Data. In a few lines:
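HEK cells expressing human NaV (e.g. NaV1.7), loaded with CC2-DMPE/DiSBAC6(3) FRET dyes, compounds 20–35 min at room temperature, 0.625% DMSO, KCl 4.5–20 mM. Electrical stimulation ~9 s at 400 Hz scan; background-subtracted 460/580 nm emission ratios normalized; tetracaine 125 µM as positive control.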
For the molecule `Cc1cc(C(=O)N2CCC3(CC2)CC(OC(C)C)c2nn(C)cc2O3)ccc1OC(C)C` (centres unmarked) [Compound 104], the pIC50 is no less than 5.70.
Under `Cc1cc(C(F)F)n2ncc(C(=O)N3CCC4(CC3)C[C@@H](OC(C)C)c3ccccc3O4)c2n1` [Compound 87] stands no less than 5.70.
Consider `CC(C)O[C@H]1CC2(CCN(C(=O)c3ccc(C(C)(C)O)cc3)CC2)Oc2ccccc21` [Compound 115], for which the pIC50 was 5.30 to 5.70.
Under `CCO[C@@H]1CC2(CCN(C(=O)c3ccc(S(=O)(=O)CC(C)C)cc3)CC2)Oc2ccc(F)cc21` [Compound 5] stands no less than 5.70; under `COc1ccc(C(=O)N2CCC3(CC2)CC(c2ccccc2)c2ccccc2O3)cc1OC` (centres unmarked) [Compound 18], no less than 5.70; under `CCc1ccc(C(=O)N2CCC3(CC2)C[C@@H](OC(C)C)c2cc(F)ccc2O3)nc1` [Compound 111], less than 5.30.
As for `CC(C)Nc1ccc(C(=O)N2CCC3(CC2)C[C@@H](OC(C)C)c2cc(F)ccc2O3)nc1` [Compound 46], the figure is no less than 5.70.
As for `CC(C)O[C@@H]1CC2(CCN(C(=O)c3ccc(N(C)C(C)C)cn3)CC2)Oc2ccc(F)cc21` [Compound 16], the figure is no less than 5.70; as for `Cc1cc(C(=O)N2CCC3(CC2)C[C@@H](OC(C)C)c2cc(F)ccc2O3)ccc1S(C)(=O)=O` [Compound 156], no less than 5.70; as for `CC(C)O[C@H]1CC2(CCN(C(=O)c3ccc4c(cnn4C)c3)CC2)Oc2ccccc21` [Compound 123], 5.30 to 5.70.
`CC(C)O[C@@H]1CC2(CCN(C(=O)c3ccc(NS(=O)(=O)C(C)C)cc3)CC2)Oc2ccc(F)cc21` [Compound 19]: the pIC50 is no less than 5.70.
Under `COc1cc(C(=O)N2CCC3(CC2)CC(OC(C)C)c2ccccc2O3)ccc1C(C)(C)CO` (centres unmarked) [Compound 62] stands no less than 5.70.
Under `CC(C)S(=O)(=O)c1ccc(C(=O)N2CCC3(CCc4ccccc4O3)CC2)cc1` [Compound 39] stands less than 5.30.
Under `Cc1cc(S(C)(=O)=O)ccc1C(=O)N1CCC2(CC1)C[C@@H](OC(C)C)c1cc(F)ccc1O2` [Compound 85] stands 5.30 to 5.70; under `CC(C)O[C@@H]1CC2(CCN(C(=O)c3ccc(N4CC(C)OC(C)C4)cn3)CC2)Oc2ccc(F)cc21` (some centres unmarked) [Compound 176], no less than 5.70.
`COc1cc(C(=O)N2CCC3(CC2)CC(OC(C)C)c2cccnc2O3)ccc1OC(C)C` (centres unmarked) [Compound 84]: the pIC50 was no less than 5.70.
Under `CCN(CC)CCOC1CC2(CCN(C(=O)c3ccc(OC(C)C)c(OC)c3)CC2)Oc2ccccc21` (centres unmarked) [Compound 38] stands less than 5.30; under `COc1cc(C(=O)N2CCC3(CC2)C[C@@H](OC(C)C)c2ccccc2O3)ccc1OC(F)F` [Compound 70], 5.30 to 5.70; under `COc1ccc(C(=O)N2CCC3(CC2)C[C@H](OC(C)C)c2ccccc2O3)cc1C` [Compound 133], no less than 5.70.
As for `Cc1cc(C(=O)N2CCC3(CC2)C[C@@H](OC(C)C)c2cc(F)ccc2O3)ccc1S(=O)(=O)C(C)C` [Compound 13], the figure is no less than 5.70; as for `COc1cc(C(=O)N2CCC3(CC2)C[C@@H](OC(C)C)c2ccccc2O3)ccc1OC(C)C` [Compound 114], no less than 5.70; as for `COc1cc(C(=O)N2CCC3(CC2)CC(OC(C)C)c2ccccc2O3)ccc1C(C)(C)C` (centres unmarked) [Compound 60], no less than 5.70.
As for `Cc1cc(C(=O)N2CCC3(CC2)C[C@@H](O)c2cc(F)ccc2O3)ccc1C(C)(C)O` [Compound 134], the figure is no less than 5.70; as for `CC(C)O[C@@H]1CC2(CCN(C(=O)c3cccc4cccnc34)CC2)Oc2ccccc21` [Compound 14], no less than 5.70.
Take `COc1cc(C(=O)N2CCC3(CC2)C[C@H](OC(C)C)c2ccccc2O3)ccc1C(C)(C)CO` [Compound 71]: the pIC50 was no less than 5.70.
For `COCC1CC2(CCN(C(=O)c3ccc(OC(C)C)c(OC)c3)CC2)Oc2ccccc21` (centres unmarked) [Compound 168], the pIC50 was no less than 5.70.
As for `CC[C@@H](C)Nc1ccc(C(=O)N2CCC3(CC2)C[C@@H](OC(C)C)c2cc(F)ccc2O3)nc1` [Compound 66], the figure is no less than 5.70; as for `CC(C)OCC1CC2(CCN(C(=O)c3ccc(C(C)(C)O)cc3)CC2)Oc2ccccc21` (centres unmarked) [Compound 35], no less than 5.70.
As for `CC(C)O[C@H]1CC2(CCN(C(=O)c3ccc(C(C)(C)O)c(F)c3)CC2)Oc2cc(F)ccc21` [Compound 154], the figure is no less than 5.70.
As for `CC(C)O[C@@H]1CC2(CCN(C(=O)c3ccccc3OC(F)(F)F)CC2)Oc2ccc(F)cc21` [Compound 131], the figure is no less than 5.70; as for `COc1cc(C(=O)N2CCC3(CC2)C[C@@H](OC(C)C)c2ccccc2O3)ccc1O` [Compound 136], no less than 5.70; as for `CC(C)O[C@@H]1CC2(CCN(C(=O)c3ccc(N4CC(S(C)(=O)=O)C4)cn3)CC2)Oc2ccc(F)cc21` [Compound 103], less than 5.30.
On to `COc1cc(C(=O)N2CCC3(CC2)CC(Oc2cncc(C#N)c2)c2ccccc2O3)ccc1OC(C)C` (centres unmarked) [Compound 3], for which the pIC50 was no less than 5.70.
As for `COc1ccc(C(=O)N2CCC3(CC2)C[C@@H](OC(C)C)c2ccccc2O3)cc1C` [Compound 20], the figure is no less than 5.70; as for `C=CCOC1CC2(CCN(C(=O)c3ccc(OC(C)C)c(OC)c3)CC2)Oc2ccccc21` (centres unmarked) [Compound 21], no less than 5.70; as for `CCc1ccc(C(=O)N2CCC3(CC2)C[C@@H](OC(C)C)c2ccccc2O3)cc1OC` [Compound 50], no less than 5.70.
Under `CCOCC1CC2(CCN(C(=O)c3ccc(OC(C)C)c(OC)c3)CC2)Oc2ccccc21` (centres unmarked) [Compound 56] stands no less than 5.70; under `CC(C)Oc1ccc(C(=O)N2CCC3(CC2)C[C@@H](OC(C)C)c2ccccc2O3)cc1O` [Compound 91], no less than 5.70.
As for `CC(C)O[C@@H]1CC2(CCN(C(=O)c3ccc(N4CCCCC4C)cn3)CC2)Oc2ccc(F)cc21` (some centres unmarked) [Compound 54], the figure is no less than 5.70; as for `CC(C)O[C@@H]1CC2(CCN(C(=O)c3ccc(NC(C)(C)C)cn3)CC2)Oc2ccc(F)cc21` [Compound 174], no less than 5.70.
For the molecule `CC(C)O[C@@H]1CC2(CCN(C(=O)c3ccc(S(=O)(=O)C(C)C)cc3)CC2)Oc2c(F)cc(F)cc21` [Compound 153], the pIC50 was 5.30 to 5.70.
For `CC(C)O[C@@H]1CC2(CCN(C(=O)c3ccc(C(C)(C)O)c(F)c3)CC2)Oc2cc(F)ccc21` [Compound 130], the pIC50 is 5.30 to 5.70.
As for `CC(C)O[C@@H]1CC2(CCN(C(=O)c3ccc(S(=O)(=O)C(F)F)cc3)CC2)Oc2ccc(F)cc21` [Compound 110], the figure is no less than 5.70.
As for `CCOC1CC2(CCN(C(=O)c3ccc(OC(C)C)c(OC)c3)CC2)S(=O)(=O)c2ccccc21` (centres unmarked) [Compound 24], the figure is no less than 5.70; as for `COc1cc(C(=O)N2CCC3(CC2)CC(OCC2CC2)c2ccccc2O3)ccc1OC(C)C` (centres unmarked) [Compound 158], no less than 5.70.
As for `COc1cc(C(=O)N2CCC3(CC2)C[C@@H](OC(C)C)c2cc(F)ccc2O3)ccc1OC(C)C` [Compound 146], the figure is no less than 5.70; as for `CC(C)O[C@@H]1CC2(CCN(C(=O)c3ccc(S(=O)(=O)CC4CCC4)cn3)CC2)Oc2ccc(F)cc21` [Compound 58], no less than 5.70.
Take `COc1cc(C(=O)N2CCC3(CC2)Oc2ccccc2C(OC(C)C)C3C)ccc1OC(C)C` (centres unmarked) [Compound 94]: the pIC50 is no less than 5.70.
Under `CC(C)Oc1ccc(C(=O)N2CCC3(CC2)C[C@H](OC(C)C)c2ccccc2O3)cc1C#N` [Compound 167] stands no less than 5.70; under `CC(C)O[C@@H]1CC2(CCN(C(=O)c3ccc(NC4(C)COC4)cn3)CC2)Oc2ccc(F)cc21` [Compound 1], no less than 5.70; under `CCOC1Cc2ccccc2OC12CCN(C(=O)c1ccc(OC(C)C)c(OC)c1)CC2` (centres unmarked) [Compound 100], no less than 5.70.
As for `COc1cc(C(=O)N2CCC3(CC2)CC(OC(C)C)c2ccccc2S3(=O)=O)ccc1OC(C)C` (centres unmarked) [Compound 81], the figure is no less than 5.70; as for `CC(C)CS(=O)(=O)c1ccc(C(=O)N2CCC3(CC2)C[C@@H](OC(C)C)c2cc(F)ccc2O3)cc1` [Compound 147], no less than 5.70.
